Source: patent publication US20220152087A1, “CYCLODEXTRIN DERIVATIVES REDUCING FLAVIVIRUS NS1-INDUCED ENDOTHELIAL HYPERPERMEABILITY AND VASCULAR LEAK” (priority 2020, published 2022)

system: endothelial dysfunction induced by DENV NS1 in HPMEC monolayers; assay: Effect of cyclodextrins on endothelial dysfunction induced by DENV NS1 (TEER of HPMEC monolayers in transwells); type: cell-based, human; settings: DENV NS1 at 10 micrograms/mL, TEER 2 to 10 hours post-treatment, AUC vs DENV NS1-only control
Method: The present invention is based on the evaluation of the in vitro efficacy against DENV NS1-mediated pathogenesis of a series of different CDs that display variable cavity sizes as well as different degrees and types of substitution. In an in vitro model of endothelial permeability, CDs, at concentrations with no anticoagulant effects, were added to human pulmonary microvascular endothelial cells (HPMECs) treated with DENV NS1 to induce endothelial hyperpermeability.
Endothelial disruption (hyperpermeability) was quantified by measuring transendothelial electrical resistance (TEER). […] Sulfate group substitution of cyclodextrins contributed to the anti-leak activity.
The method is suitable to study the effect of NS1 from DENV from all serotypes and NS1 from other flaviviruses. HPMEC monolayers (6×10^4 cells/transwell) cultured in transwell inserts for three days were treated with the CD compounds then treated or not with DENV NS1 at 10 micrograms/mL. Recombinant NS1 protein from DENV (Strain 16681) weas certified to be endotoxin-free and >95% purity (Native Antigen, United Kingdom). TEER was measured from 2 to 10 hours post-treatment. The area under the curve of the different treatments+DENV NS1 was compared by one-way ANOVA plus Dunnett's test to the DENV NS1-only control.
Randomly substituted alpha-cyclodextrin sulfate sodium salt (average degree of substitution: ˜12) was used as specified according to Example 1. […] A) HPMEC monolayers (6×10e4 cells/transwell) cultured in transwell inserts for three days were treated with the compounds in the presence or absence of DENV NS1 at 10 ug/mL. TEER was measured from 2 to 10 hours post-treatment. Relative TEER was calculated as the ratio between resistance values obtained in the different treatments and medium-only controls. B) Area under the curve of the different treatments was compared by one-way ANOVA plus Dunnett's test to the DENV NS1control. P-values are summarized with number of asterisks as follows: *p≤0.05, **p≤0.01, ***p≤0.001, ****p≤0.0001. The effective dose of cyclodextrin for hindering endothelial leakage was 10 micrograms/mL.

Point of comparison: beta cyclodextrin sulfate sodium salt, “effective dose of cyclodextrin for hindering endothelial leakage / hyperpermeability” value 10 micrograms/mL. Against it:
- 2,3-di-OH-6-sulfo-gamma cyclodextrin sodium salt — the same, 10 micrograms/mL
- 2,3-dimethyl-6-sulfate-alpha cyclodextrin sodium salt — higher, 250 micrograms/mL
- 2,3-dimethyl-6-sulfate-beta cyclodextrin sodium salt — higher, 100 micrograms/mL
- 2,3-dimethyl-6-sulfate-gamma cyclodextrin sodium salt — higher, 100 micrograms/mL
- 2-hydroxypropyl-beta-cyclodextrin [reference compound] — higher, 1000 micrograms/mL
- 2-hydroxypropyl-gamma-cyclodextrin — higher, 1000 micrograms/mL
- alpha-cyclodextrin sulfate sodium salt — the same, 10 micrograms/mL
- gamma cyclodextrin sulfate sodium salt — the same, 10 micrograms/mL
- sulfobutlyether beta cyclodextrin sodium salt — higher, 100 micrograms/mL
- sulfopropylether alpha cyclodextrin sodium salt — higher, 1000 micrograms/mL
- sulfopropylether beta cyclodextrin sodium salt — higher, 1000 micrograms/mL
- sulfopropylether gamma cyclodextrin sodium salt — higher, 1000 micrograms/mL
